Among the data in ChEMBL document CHEMBL4052697, “Chimeric analogs of human β-defensin 1 and θ-defensin disrupt pre-established bacterial biofilms” (2017) are MBEC, Activity and MBC values, retold here.

≈ marks a conversion by molar mass, not a printed value. Calls of active or inactive are those of the source.

Assay type in all cases: functional
Assay [1] has as its system Escherichia coli. In words: Antibiofilm activity against pre-established 36 hrs old bacterial biofilms of Escherichia coli MG1655 incubated for 4 hrs by XTT assay. On the technique in general: Formazan colour is commonly taken as a measure of viable cells.
For assay [2], the system named is Staphylococcus aureus. In words: Antibiofilm activity against pre-established 36 hrs old bacterial biofilms of Staphylococcus aureus NCTC 8530 incubated for 4 hrs by XTT assay.
The test system of assay [3] is Staphylococcus aureus. Description: Antibiofilm activity against pre-established 36 hrs old bacterial biofilms of Staphylococcus aureus NCTC 8530 incubated for 4 hrs by […] LIVE/DEAD BacLight staining based confocal microscopy.
The test system of assay [4] is Escherichia coli. In words: Antibiofilm activity against pre-established 36 hrs old bacterial biofilms of Escherichia coli MG1655 incubated for 4 hrs Antibiofilm activity against pre-established 36 hrs old bacterial biofilms of Escherichia coli MG1655 incubated for 4 hrs by LIVE/DEAD BacLight staining based confocal microscopy.
In assay [5] the test system is Escherichia coli. Description: Bactericidal activity against Escherichia coli MG1655 planktonic forms.
For assay [6], the system named is Staphylococcus aureus. In words: Bactericidal activity against Staphylococcus aureus NCTC 8530 planktonic forms.

With `CC[C@@H](C)[C@H]1NC(=O)[C@H]2CCCN2C(=O)[C@H](NC(=O)[C@@H](C)N)CSSC[C@H](C(=O)O)NC(=O)[C@@H]([C@H](C)CC)NC(=O)[C@@H](CCCNC(=N)N)NC(=O)[C@@H](CCCNC(=N)N)NC(=O)CNC(=O)[C@@H]([C@H](C)CC)NC(=O)[C@@H](CCCNC(=N)N)NC(=O)[C@@H](CCCCN)NC(=O)[C@@H](C)NC(=O)[C@@H](CCCCN)NC(=O)CNC(=O)[C@@H](CCCNC(=N)N)NC(=O)[C@@H](Cc2ccc(O)cc2)NC(=O)[C@@H]([C@H](C)O)NC(=O)CNC(=O)[C@@H](CCC(N)=O)NC(=O)[C@@H]([C@H](C)CC)NC(=O)[C@@H](CCCCN)NC(=O)[C@@H]([C@H](C)O)NC(=O)[C@@H](Cc2ccccc2)NC1=O`, the MBEC in assay [1] and in assay [2] was 200 µM each time. The outcome in assay [3] and in assay [4] was Active. The minimal bactericidal concentration (MBC) (as a rule, the smallest concentration meeting the test's criterion for killing) worked out at 1 µM (≈ 2.74 µg/mL) in assay [5] and 2 µM (≈ 5.47 µg/mL) in assay [6].
